How the values were obtained:
Type in all cases: cell-based
UACC-257 = assay: NCI panel SRB growth inhibition; conditions: Homo sapiens, UACC-257, Melanoma, 48 h
Method: (§1) The operation of this unique screen utilizes […] different human tumor cell lines, representing leukemia, melanoma and cancers of the lung, colon, brain, ovary, breast, prostate, and kidney.
(§2) Culture conditions and plating: The human tumor cell lines of the cancer-screening panel were grown in RPMI 1640 medium containing 5% fetal bovine serum and 2 mM L-glutamine. For a typical screening experiment, cells were inoculated into 96 well microtiter plates in 100 μL at plating densities ranging from 5,000 to 40,000 cells/well depending on the doubling time of individual cell lines (Table 5). After cell inoculation, the microtiter plates were incubated at 37° C., 5% CO2, 95% air and 100% relative humidity for 24 h prior to addition of experimental drugs. After 24 h, two plates of each cell line were fixed in situ with TCA, to represent a measurement of the cell population for each cell line at the time of drug addition (Tz). Evaluation of inhibitory activity on cell proliferation: ECO-04601 was provided as a lyophilized powder with an estimated purity of 90+%. The compound was stored at −20° C. until day of use. ECO-04601 was solubilized in dimethyl sulfoxide at 400-fold the desired final maximum test concentration. At the time of drug addition, an aliquot of frozen concentrate was thawed and diluted to twice the desired final maximum test concentration with complete medium containing 50 μg/mL gentamicin. Additional four, 10-fold or Y2 log serial dilutions were made to provide a total of five drug concentrations plus control. Aliquots of 100 μl of these different drug dilutions were added to the appropriate microtiter wells already containing 100 μl of medium, resulting in the required final drug concentrations (8.0×10^−5 M to 8.0×10^−9 M).
(§3) Following drug addition, the plates were incubated for an additional 48 h at 37° C., 5% CO2, 95% air, and 100% relative humidity. For adherent cells, the assay was terminated by the addition of cold TCA. Cells were fixed in situ by the gentle addition of 50 μl of cold 50% (w/v) TCA (final concentration, 10% TCA) and incubated for 60 minutes at 4° C. Supernatants were discarded, and the plates were washed five times with tap water and air-dried. Sulforhodamine B (SRB) solution (100 μl) at 0.4% (w/v) in 1% acetic acid was added to each well, and plates were incubated for 10 minutes at room temperature. After staining, unbound dye was removed by washing five times with 1% acetic acid and the plates were air-dried. Bound stain was subsequently solubilized with 10 mM trizma base, and the absorbance was read on an automated plate reader at a wavelength of 515 nm. For suspension cells, the methodology was the same except that the assay was terminated by fixing settled cells at the bottom of the wells by gently adding 50 μl of 80% TCA (final concentration, 16% TCA).
(§4) The growth inhibitory activity of ECO-04601 was measured by NCI utilizing the GI50 value, rather than the classical IC50 value.

CAKI-1 = assay: NCI panel SRB growth inhibition; conditions: Homo sapiens, CAKI-1, Renal, 48 h
Method: as §1, §2, §3, §4

OVCAR-5 = assay: NCI panel SRB growth inhibition; conditions: Homo sapiens, OVCAR-5, Ovarian, 48 h
Method: as §1, §2, §3, §4

RPMI-8226 = assay: NCI panel SRB growth inhibition; conditions: Homo sapiens, RPMI-8226, Leukemia, 48 h
Method: as §1, §2, §3, §4

OVCAR-4 = assay: NCI panel SRB growth inhibition; conditions: Homo sapiens, OVCAR-4, Ovarian, 48 h
Method: as §1, §2, §3, §4

DN = assay: Antiproliferative study, glioma cell lines (MTT); conditions: Homo sapiens, Oligodendroglioma, 96 hrs
Method: (§5) Cells were passaged once a week. Prior to use the cells were detached from the culture flask by treating with trypsin for five to ten minutes. The cells were counted with a Neubauer glass slide and viability assessed by 0.25% trypan blue exclusion. Only flasks with >95% cell viability, were used in the study. Cell lines amplification and plating: Cells, 5×10^3 cells per well in 100 μL drug-free medium supplemented with 10% serum, were plated in 96-well flat bottom microtiter plates and incubated at 37° C. for 48 hrs before treatment. Evaluation of inhibitory activity on cell proliferation: Cells (in triplicate wells) were incubated 96 hrs with medium containing different concentrations of ECO-04601, starting at 5.0 μg/ml (10 μM). The compound was used in a solution of 1% DMSO in D-MEM or RPMI media (or other equivalent media). The concentrations of ECO-04601 were as follows: 10 μM (5.0 μg/ml), 1 μM (0.50 μg/ml), 0.5 μM (0.25 μg/ml), 0.1 μM (0.050 μg/ml), […] (0.025 μg/ml), 0.01 μM (0.0050 μg/ml), 0.001 μM (0.00050 μg/ml). Negative controls were cells treated with vehicle alone (1% DMSO in culture medium). Positive controls were cells treated with 4 to 6 increasing concentrations of cisplatin (CDDP) (data not shown). The optical density was measured before incubation (time 0) and following 96 hrs of incubation with test compound in order to measure the growth rate of each cell line.
(§6) At the end of the cell treatment, cell culture media was replaced with 150 μl of fresh medium containing 10 mM of 4-(2-hydroxyethyl)-1-piperazineethanesulfonic acid buffer, pH 7.4. Then 50 μl of 2.5 mg/ml of 3-(4,5-dimethylthiazo-2-yl)-2,5-diphenyltetrazolium bromide in PBS pH 7.4, were added to each well and the culture plates incubated for 4 hrs at 37° C. The resulting supernatant was removed and formazan crystals were dissolved with 200 μl of DMSO followed by 25 μl of glycine buffer (0.1 M glycine plus 0.1 M NaCl, pH 10.5). The optical density was read in each well using a single wavelength spectrophotometer plate reader at 570 nm. […] Each of the cell lines was tested in at least 3 independent experiments.

C6 = assay: Antiproliferative study, glioma cell lines (MTT); conditions: Rattus norvegicus, C6, Glioblastoma, 96 hrs
Method: as §5, §6

9L = assay: Antiproliferative study, glioma cell lines (MTT); conditions: Rattus norvegicus, Gliosarcoma, 96 hrs
Method: as §5, §6

GHA = assay: Antiproliferative study, glioma cell lines (MTT); conditions: Homo sapiens, Oligodendroglioma, 96 hrs
Method: as §5, §6

U 373 = assay: Antiproliferative study, glioma cell lines (MTT); conditions: Homo sapiens, U373 MG, U 373, Astrocytoma, 96 hrs
Method: as §5, §6

GHD = assay: Antiproliferative study, glioma cell lines (MTT); conditions: Homo sapiens, Astrocytoma, 96 hrs
Method: as §5, §6

human 5-LO = target: T1, human 5-LO (Homo sapiens, UniProt P09917); assay: Human 5-lipoxygenase activity in stimulated PMNs (Leukotriene B4 EIA)
T1 construct: Human peripheral blood mononuclear cells (PMNs) were isolated through a Ficoll-Paque density gradient; endogenous in cells; host or cells: human peripheral blood cells (PMNs) isolated by Ficoll-Paque, stimulated with A23187
T1 sequence (P09917 whole entry): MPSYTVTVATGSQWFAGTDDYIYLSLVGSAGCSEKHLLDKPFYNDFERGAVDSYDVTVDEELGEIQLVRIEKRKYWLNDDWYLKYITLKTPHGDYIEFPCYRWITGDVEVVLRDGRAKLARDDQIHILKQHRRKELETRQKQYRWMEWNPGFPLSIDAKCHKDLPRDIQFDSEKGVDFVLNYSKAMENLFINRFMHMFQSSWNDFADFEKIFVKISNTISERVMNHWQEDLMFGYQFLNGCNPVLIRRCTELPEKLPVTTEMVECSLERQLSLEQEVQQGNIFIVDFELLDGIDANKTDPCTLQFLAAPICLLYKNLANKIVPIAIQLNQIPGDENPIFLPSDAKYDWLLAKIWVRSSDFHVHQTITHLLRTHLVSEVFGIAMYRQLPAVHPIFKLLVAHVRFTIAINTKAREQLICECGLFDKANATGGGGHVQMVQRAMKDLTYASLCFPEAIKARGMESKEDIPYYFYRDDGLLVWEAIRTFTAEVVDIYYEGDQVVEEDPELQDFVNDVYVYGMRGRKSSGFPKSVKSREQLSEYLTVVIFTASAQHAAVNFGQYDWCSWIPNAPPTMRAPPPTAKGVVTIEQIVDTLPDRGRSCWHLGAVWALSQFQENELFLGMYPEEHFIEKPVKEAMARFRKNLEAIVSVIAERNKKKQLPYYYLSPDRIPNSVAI

IC50 (DN): 3.26 ± 0.93 µM | IC50 (C6): 4.28 ± 2.82 µM | IC50 (9L): 6.82 ± 2.9 µM | IC50 (GHA): 1.78 ± 0.84 µM | IC50 (U 373): 3.83 ± 1.37 µM | IC50 (GHD): 6.29 ± 2.98 µM | IC50 (human 5-LO; A23187-stimulated human PMNs, 15 minutes at 37° C., Leukotriene B4 EIA, read-out: apparent IC50, activity of human 5-LO): 0.93 µM | EC50 (human 5-LO; FIG. 8 legend): 0.93 µM
Structure (SMILES): CC(C)=CCC/C(C)=C/CC/C(C)=C/CN1C(=O)c2cccc(O)c2Nc2c(O)cc(O)cc21 [ECO-04601, 10-farnesyl-4,6,8-trihydroxy-dibenzodiazepin-11-one]
GI50 (UACC-257): 2.31 µM | GI50 (CAKI-1): 15.2 µM | GI50 (OVCAR-5): 2.81 µM | GI50 (RPMI-8226): 3.15 µM | GI50 (OVCAR-4): 9.67 µM

Reference: patent US7101872B2, “Farnesyl dibenzodiazepinone, and processes for its production” (Ecopia BioSciences, Inc., priority 2003, dated 2006)
